From ChEMBL document CHEMBL1145222, “Synthesis and in vitro study of novel Mannich bases as antibacterial agents” (2005)

Tests used:
Type in all cases: functional
Bacillus subtilis [1] = test: Zone of inhibition of Bacillus subtilis at compound concentration of 40 mg/mL
Bacillus subtilis [2] = test: Zone of inhibition of Bacillus subtilis at compound concentration of 80 mg/mL
Bacillus subtilis [3] = test: Zone of inhibition of Bacillus subtilis at compound concentration of 160 mg/mL
Staphylococcus aureus [4] = test: Zone of inhibition of Staphylococcus aureus at compound concentration of 40 mg/mL
Staphylococcus aureus [5] = test: Zone of inhibition of Staphylococcus aureus at compound concentration of 80 mg/mL
Staphylococcus aureus [6] = test: Zone of inhibition of Staphylococcus aureus at compound concentration of 160 mg/mL
[7] = system: Salmonella enterica subsp. enterica serovar Typhi; test: Zone of inhibition of Salmonella typhae at compound concentration of 40 mg/mL
[8] = system: Salmonella enterica subsp. enterica serovar Typhi; test: Zone of inhibition of Salmonella typhae at compound concentration of 80 mg/mL
[9] = system: Salmonella enterica subsp. enterica serovar Typhi; test: Zone of inhibition of Salmonella typhae at compound concentration of 160 mg/mL
Klebsiella pneumoniae [10] = test: Zone of inhibition of Klebsiella pneumoniae at compound concentration of 40 mg/mL
Klebsiella pneumoniae [11] = test: Zone of inhibition of Klebsiella pneumoniae at compound concentration of 80 mg/mL
Klebsiella pneumoniae [12] = test: Zone of inhibition of Klebsiella pneumoniae at compound concentration of 160 mg/mL
Escherichia coli [13] = test: Zone of inhibition of Escherichia coli at compound concentration of 40 mg/mL
Escherichia coli [14] = test: Zone of inhibition of Escherichia coli at compound concentration of 80 mg/mL
Escherichia coli [15] = test: Zone of inhibition of Escherichia coli at compound concentration of 160 mg/mL
Pseudomonas aeruginosa [16] = test: Zone of inhibition of Pseudomonas aeruginosa at compound concentration of 40 mg/mL
Pseudomonas aeruginosa [17] = test: Zone of inhibition of Pseudomonas aeruginosa at compound concentration of 80 mg/mL
Pseudomonas aeruginosa [18] = test: Zone of inhibition of Pseudomonas aeruginosa at compound concentration of 160 mg/mL
Escherichia coli [19] = test: Zone of inhibition Escherichia coli at compound concentration of 40 mg/mL
Escherichia coli [20] = test: Zone of inhibition Escherichia coli Escherichia coli at compound concentration of 80 mg/mL
Escherichia coli [21] = test: Zone of inhibition Escherichia coli Escherichia coli at compound concentration of 160 mg/mL
Escherichia coli [22] = test: Zone of inhibition Escherichia coli at compound concentration of 80 mg/mL
Escherichia coli [23] = test: Zone of inhibition Escherichia coli at compound concentration of 160 mg/mL
Klebsiella pneumoniae [24] = test: Zone of inhibition Klebsiella pneumoniae at compound concentration of 40 mg/mL
Klebsiella pneumoniae [25] = test: Zone of inhibition Klebsiella pneumoniae at compound concentration of 160 mg/mL
Klebsiella pneumoniae [26] = test: Zone of inhibition Klebsiella pneumoniae at compound concentration of 80 mg/mL

Structure (SMILES) | Inhibition (Bacillus subtilis [1]) | Inhibition (Bacillus subtilis [2]) | Inhibition (Bacillus subtilis [3]) | Inhibition (Staphylococcus aureus [4]) | Inhibition (Staphylococcus aureus [5]) | Inhibition (Staphylococcus aureus [6]) | Inhibition [7] | Inhibition [8] | Inhibition [9] | Inhibition (Klebsiella pneumoniae [10]) | Inhibition (Klebsiella pneumoniae [11]) | Inhibition (Klebsiella pneumoniae [12]) | Inhibition (Escherichia coli [13]) | Inhibition (Escherichia coli [14]) | Inhibition (Escherichia coli [15]) | Inhibition (Pseudomonas aeruginosa [16]) | Inhibition (Pseudomonas aeruginosa [17]) | Inhibition (Pseudomonas aeruginosa [18]) | further results
CC(=O)[N-]S(=O)(=O)c1ccc(N)cc1.[Na+] | 9.5 mm | 10 mm | 15 mm | 19.5 mm | 21 mm | 24 mm |  |  |  |  |  |  |  |  |  |  |  |  | 
COc1ccc(Cl)cc1C(=O)NCN(c1ccccc1)c1ccccc1 | 7.5 mm | 7.5 mm | 8 mm |  |  |  | 7.5 mm | 7.5 mm | 8.5 mm | 7 mm | 7 mm | 8 mm |  |  |  |  |  |  | 
Nc1ccc(S(N)(=O)=O)cc1 [SULFANILAMIDE] | 10.5 mm | 11.5 mm | 13 mm | 20.5 mm | 22.5 mm | 25 mm | 7 mm | 7.5 mm | 7.5 mm |  |  |  | 16.5 mm | 18 mm | 20.5 mm | 13.5 mm | 15.5 mm | 17.5 mm | 
COc1ccc(Cl)cc1C(=O)NCNc1ccc(S(=O)(=O)NN)cc1 | 7 mm | 7.5 mm | 11.5 mm | 7.5 mm | 8.5 mm | 11 mm | 7 mm | 7.5 mm | 8 mm | 7 mm | 7.5 mm | 9.5 mm |  |  |  | 7.5 mm | 8 mm | 8.5 mm | Inhibition (Escherichia coli [19]): 7 mm; Inhibition (Escherichia coli [20]): 7.5 mm; Inhibition (Escherichia coli [21]): 8.5 mm
COc1ccc(Cl)cc1C(=O)NCNc1ccc(S(=O)(=O)[N-]C(C)=O)cc1.[Na+] | 10.5 mm | 12.5 mm | 16.5 mm | 10.5 mm | 14.5 mm | 22 mm | 10.5 mm | 14.5 mm | 22 mm | 10 mm | 12.5 mm | 15.5 mm |  |  |  | 9.5 mm | 12.5 mm | 14.5 mm | Inhibition (Escherichia coli [19]): 9.5 mm; Inhibition (Escherichia coli [22]): 10.5 mm; Inhibition (Escherichia coli [23]): 13 mm
COc1ccc(Cl)cc1C(=O)NCN(C)C |  |  |  |  |  |  |  |  |  | 7 mm | 7.5 mm | 7.5 mm |  |  |  | 7 mm | 7.5 mm | 7.5 mm | 
COc1ccc(Cl)cc1C(=O)NCNc1ccc(S(=O)(=O)Nc2ncccn2)cc1 | 7 mm | 7 mm | 7.5 mm | 9.5 mm | 11.5 mm | 15 mm | 7 mm | 7 mm | 7.5 mm | 7.5 mm | 8 mm | 8.5 mm | 8 mm | 8.5 mm | 9.5 mm | 7.5 mm | 7.5 mm | 8.5 mm | 
COc1ccc(Cl)cc1C(=O)NCN(CCO)CCO | 7 mm | 7.5 mm | 8.5 mm |  |  |  |  |  |  |  |  |  |  |  |  |  |  |  | Inhibition (Escherichia coli [19]): 7 mm; Inhibition (Escherichia coli [22]): 7.5 mm; Inhibition (Escherichia coli [23]): 8.5 mm; Inhibition (Klebsiella pneumoniae [24]): 7 mm; Inhibition (Klebsiella pneumoniae [25]): 7.5 mm; Inhibition (Klebsiella pneumoniae [26]): 7.5 mm
COc1ccc(Cl)cc1C(=O)NCN1CCOCC1 | 8.5 mm | 9 mm | 10.5 mm | 11 mm | 13.5 mm | 16.5 mm |  |  |  | 10.5 mm | 12.5 mm | 14.5 mm | 9.5 mm | 10.5 mm | 12.5 mm | 9.5 mm | 10.5 mm | 12 mm | 
Nc1ccc(S(=O)(=O)Nc2ncccn2)cc1 [SULFADIAZINE] | 8.5 mm | 9.5 mm | 13.5 mm | 7 mm | 7.5 mm | 9.5 mm | 7 mm | 7.5 mm | 9 mm | 12.5 mm | 13.5 mm | 15 mm | 8.5 mm | 9.5 mm | 12.5 mm |  |  |  | 
Cc1cc(NS(=O)(=O)c2ccc(N)cc2)no1 [SULFAMETHOXAZOLE] | 15.5 mm | 18.5 mm | 20 mm | 19.5 mm | 20.5 mm | 21 mm | 8.5 mm | 9 mm | 12.5 mm | 8.5 mm | 9 mm | 11.5 mm | 18.5 mm | 20.5 mm |  |  |  |  | 
